In article PMC9037180, “Ligand-based design and synthesis of N'-Benzylidene-3,4-dimethoxybenzohydrazide derivatives as potential antimicrobial agents; evaluation by in vitro, in vivo, and in silico approaches with SAR studies” (Journal of Enzyme Inhibition and Medicinal Chemistry, 2022):
In brackets after ≈: the same amount, converted by molar mass. Like-named read-outs stand apart in the source and are kept apart here.

Columns and labels:
[1] = system: E. faecalis, Acientobacter, P. auriginosa, S. aureus, S. typhi, E. coli, C. albicans; experiment: Average MIC over the nine tested microbial species (SAR); type: cell-based; details: for antimicrobial activity (SAR grading): based on MIC average values
Excerpt: Herein, we aimed to study the structure-antimicrobial activity relationship of the newly synthesised N'-benzylidene-3,4-dimethoxybenzohydrazide derivatives based on MIC average values[51]^,[52] as represented in the supplementary data (Table SI1). Thereby, the changes in their antimicrobial potential and spectrum upon structural modifications could be unveiled, thus offering clues for structural changes that are capable of increasing the antimicrobial potential.

S. typhi [2] = experiment: H&E histological examination of liver and kidney, S. typhi infected rats; type: in vivo
Protocol: (§1) Rats were divided randomly into equal fifteen groups, each containing 9 rats as follows: • Group 1: Rats were kept on standard laboratory chow and water ad libitum to serve as a control. • Group 2: Rats have injected IP with sterile distilled water (4ml/kg) daily for one week to serve as a control. • Group 3: Rats have injected IP with DEMSO (dimethyl sulfoxide) (4 ml/kg) daily for one week to serve as a control. • Group 4: Rats have injected IP with 4h (1.9 mg/kg) daily for one week. • Group 5: Rats have injected IP with 4h (3.8 mg/kg) daily for one week. • Group 6: Rats have injected IP with 4i (1.9 mg/kg) daily for one week. • Group 7: Rats have injected IP with 4i (3.8 mg/kg) daily for one week. • Group 8: Rats were infected by a single IM injection of S. aureus strain [1.0 ml) 1 × 10^7) colony-forming units]. • Group 9: Rats have injected IP with 4h (1.9 mg/kg) daily for one week on the 7th day after induction of infection by a single IM injection of S. aureus strain [1.0 ml (1 × 10^7) colony-forming units. • Group 10: Rats have injected IP with 4h (3.8 mg/kg) daily for one week on the 7th day after induction of infection by a single IM injection of S. aureus strain [1.0 ml (1 × 10^7) colony-forming units]. • Group 11: Rats were infected by a single IM injection of S. typhi strain [1.0 ml (1 × 10^7) colony forming units). • Group 12: Rats have injected IP with 4h (1.9 mg/kg) daily for one week. on the 7th day after induction of infection by a single IM injection of S. typhi strain [1.0 ml (1 × 10^7) colony-forming units]. • Group 13: Rats have injected IP with 4h (3.8 mg/kg) daily for one week on the 7th day after infection by a single IM injection of S. typhi strain [1.0 ml (1 × 10^7) colony-forming units]. • Group 14: Rats have injected IP with 4i (1.9 mg/kg) daily for one week. on the 7th day after induction of infection by a single IM injection of S. typhi strain [1.0 ml (1 × 10^7) colony-forming units]. • Group 15: Rats have injected IP with 4i (3.8 mg/kg) daily for one week. on the 7th day after induction of infection by a single IM injection of Salmonella strain [1.0 ml (1 × 10^7) colony-forming units].
(§2) At the end of the experiment, the animals were euthanized through cervical dislocation. After that, the liver and kidney were dissected for histological study. The procedure for histological preparations was described by Bancroft and Stevens[73]. Briefly, liver and kidney tissues were sliced to 3–4 mm thick, fixed in 10% neutral buffered formalin (10% NBF), dehydrated in graded concentrations of ethanol, cleared in xylene, and embedded in paraffin. The paraffin blocks were sectioned with a microtome at (4–6 μm) thickness and dyed with H & E stain to study the general tissue structure.

[3] = H&E histological examination of liver and kidney, uninfected treated rats; type: in vivo; details: for liver histological structure (H&E): 1.9 and 3.8 mg/kg IP daily for one week; for kidney histological structure (H&E): low dose and high dose (1.9 and 3.8 mg/kg IP)
Protocol: as §1, §2

E. coli ATCC 25922 = experiment: Minimal inhibitory concentration (MIC), broth dilution
S. typhi [4] = experiment: Biochemical analysis in S. typhi infected rats; type: in vivo
Protocol: The compounds 4h and 4j were dissolved in DMSO (dimethyl sulfoxide) then further dilutions were made by using sterile distilled water. The doses of both candidates were calculated according to the method given by Paget and Barnes[60]. Sterile distilled water, DEMSO, and investigated compounds (4h (1.9 and 3.8 mg/kg) and 4j (1.9 and 3.8 mg/kg)) were injected in a volume of 4 ml/kg[61]. The experiment lasts two weeks, the 1st week for induction of infection in the infected groups and the 2nd week for the administration of the compounds in all groups. […]
ALT and AST were determined[66] using commercial kits obtained from Diamond Diagnostics, Egypt.
Serum urea was determined by using the modified Berthelot–Searcy method. Serum creatinine activity was also assessed by using the application of Jaffe’s reaction.
Serum levels of the pro-inflammatory cytokine, TNF-α, were determined by the quantitative enzyme immunoassay (EIA) kit purchased from R&D Systems (USA) according to the method of Howard and Harada[69], while that of anti-inflammatory cytokine IL-10 was according to Croft et al.. […]

Aciento MDR = experiment: Minimal inhibitory concentration (MIC), broth dilution
E. coli = experiment: Minimal bactericidal concentration (MBC); type: cell-based
Protocol: (§3) After determining the MIC for the target compounds, the minimal bactericidal concentration (MBC) for each compound that is required to kill each one of the above-mentioned microorganisms was assessed.

S. aureus = experiment: Minimal bactericidal concentration (MBC); type: cell-based
Protocol: as §3

S. aureus ATCC 6538 = experiment: Minimal inhibitory concentration (MIC), broth dilution
A. baumanii ATCC 19606 = experiment: as above
E. faecalis ATCC 29212 = experiment: as above
C. albicans MTCC183 = experiment: as above; type: cell-based
Excerpt: In vitro evaluation for antifungal activities regarding target compounds (4a–j) as well as reference drug, was done against C. albicans MTCC183 through the zone inhibition technique using well diffusion agar assay in addition to MIC.

[5] = first dose (1.9 mg/kg IP daily for one week)
[6] = second dose (3.8 mg/kg IP daily for one week)

| Compound | antimicrobial activity (SAR grading) [1] | kidney pathological changes (H&E) (S. typhi [2]; high dose (3.8 mg/kg)) | liver pathological changes (H&E) (S. typhi [2]; high dose (3.8 mg/kg)) | kidney pathological changes (H&E) (S. typhi [2]; low dose (1.9 mg/kg)) | liver pathological changes (H&E) (S. typhi [2]; low dose (1.9 mg/kg)) | liver histological structure (H&E) [3] | kidney histological structure (H&E) [3] | renal and liver functions, oxidative stress and inflammatory markers (urea, creatinine, ALT, AST, GSH, MDA, TNF-α, IL-10) (S. typhi [4]; [5]) | renal and liver functions, oxidative stress and inflammatory markers (urea, creatinine, ALT, AST, GSH, MDA, TNF-α, IL-10) (S. typhi [4]; [6]) | also measured |
| --- | --- | --- | --- | --- | --- | --- | --- | --- | --- | --- |
| N'-((3a,7a-dihydro-1H-indol-3-yl)methylene)-3,4-dimethoxybenzohydrazide [Compound 4h] | weaker antimicrobial potential | marked improved renal tissue | marked improvement in the pathological changes | improved pathological changes | improved pathological changes | normal histological structure | histological structure similar to those of the control groups | significant improvement in all measured parameters | returning of urea, creatinine, AST, and TNF-α to normal levels | Average MIC ([1]; average over nine microbial species): 112.13 µM; MIC (E. coli ATCC 25922; E. coli (EC)): 48.28 µM; MIC (Aciento MDR; Aciento MDR (AM)): 193.40 µM; MBC (E. coli; E. coli): 96.87 µM; MBC (S. aureus; S. aureus): 96.87 µM; MIC (S. aureus ATCC 6538; S. aureus (SA)): 5.88 µM; MIC (A. baumanii ATCC 19606; Acientobacter ATCC 19606 (A A)): 48.28 µM; MIC (E. faecalis ATCC 29212; E. faecalis (EF)): 96.87 µM; MIC (C. albicans MTCC183; C. albicans (CA), read-out: MIC): 386.80 µM |
| COc1ccc(C(=O)NN=Cc2ccc3ccccc3n2)cc1OC [Compound 4i, N'-(quinolin-2-ylmethylene)-3,4-dimethoxybenzohydrazide] | weaker antimicrobial potential | marked improved renal tissue | marked improvement in the pathological changes | improved pathological changes | improved pathological changes | normal histological structure | histological structure similar to those of the control groups | normalisation of urea, ALT, and AST | returning of urea, creatinine, ALT, and AST | MIC ([1]; read-out: Average MIC): 99.7 µM (≈ 33.4 µg/mL); MIC (E. coli ATCC 25922; Escherichia coli, ATCC25922): 23.3 µM (≈ 7.81 µg/mL); MIC (Aciento MDR; Acinetobacter baumannii): 373 µM (≈ 125 µg/mL); MBC (E. coli; Escherichia coli): 186 µM (≈ 62.5 µg/mL); MBC (S. aureus; Staphylococcus aureus): 186 µM (≈ 62.5 µg/mL); MIC (S. aureus ATCC 6538; Staphylococcus aureus, ATCC6538): 46.5 µM (≈ 15.6 µg/mL); MIC (A. baumanii ATCC 19606; Acinetobacter baumannii, ATCC19606): 11.6 µM (≈ 3.9 µg/mL); MIC (E. faecalis ATCC 29212; Enterococcus faecalis, ATCC29212): 93.4 µM (≈ 31.3 µg/mL); MIC (C. albicans MTCC183; Candida albicans, MTCC183): 23.3 µM (≈ 7.81 µg/mL) |
